For this experiment, the system named is Plasmopara viticola. The experiment in a line: Activity against peronospora of grapevines caused by Plasmopara viticola (protective spray of potted vines, cultivar Riesling). The class given is in vivo. The following applies: individual active compound, untreated control 84% infection. The procedure:
The active compounds, separately or jointly, were prepared as a stock solution comprising 0.25% by weight of active compound in acetone or DMSO. 1% by weight of the emulsifier Uniperol® EL (wetting agent having emulsifying and dispersant action based on ethoxylated alkylphenols) was added to this solution, and the mixture was diluted with water to the desired concentration.
Use Example—Activity Against peronospora of Gravevines Caused by Plasmopara viticola
Leaves of potted vines of the cultivar “Riesling” were sprayed to runoff point with an aqueous suspension having the concentration of active compound stated below. The next day, the undersides of the leaves were inoculated with an aqueous zoospore suspension of Plasmopara viticola. The grapevines were then initially placed in a water-vapor-saturated chamber at 24° C. for 48 hours and then in a greenhouse at 20-30° C. for 5 days. After this period of time, the plants were again placed in a humid chamber for 16 hours to promote sporangiophore eruption. The extent of the development of the disease on the undersides of the leaves was then determined visually.
The visually determined percentages of infected leaf areas were converted into efficacies in % of the untreated control:
The efficacy (E) is calculated as follows using Abbot's formula: E=(1−α/β)·100 • α corresponds to the fungicidal infection of the treated plants in % and • β corresponds to the fungicidal infection of the untreated (control) plants in %
An efficacy of 0 means that the infection level of the treated plants corresponds to that of the untreated control plants; an efficacy of 100 means that the treated plants were not infected.
The expected efficacies of combinations of active compounds were determined using Colby's formula (Colby, S. R. “Calculating synergistic and antagonistic responses of herbicide combinations”, Weeds, 15, pp. 20-22, 1967) and compared with the observed efficacies.
Colby's Formula: E=x+y−x·y/100 • E expected efficacy, expressed in % of the untreated control, when using the mixture of the active compounds A and B at the concentrations a and b • x efficacy, expressed in % of the untreated control, when using the active compound A at the concentration a • y efficacy, expressed in % of the untreated control, when using the active compound B at the concentration b

The mark [1] stands for this setting: 4 ppm in the spray liquor, vines Riesling.

The structures appear in SMILES notation.

For the compound `CC1CCN(c2c(-c3c(F)cccc3Cl)c(Cl)nc3ncnn23)CC1` [A], the “Efficacy in % of the untreated control” value under setting [1] stood at 16%.

In the case of `C[C@H](Nc1c(-c2c(F)cc(F)cc2F)c(Cl)nc2ncnn12)C(F)(F)F` [B], the “Efficacy in % of the untreated control” value under setting [1] is 52%.

Turning to `CC1CCN(c2c(-c3c(F)cc(F)cc3F)c(Cl)nc3ncnn23)CC1` [I, 5-chloro-7-(4-methylpiperidin-1-yl)-6-(2,4,6-trifluorophenyl)-[1,2,4]triazolo[1,5-a]pyrimidine], the “Efficacy in % of the untreated control” value under setting [1] is given as 52%.

For `Fc1ccc(Oc2ccnc3cc(Cl)cc(Cl)c23)cc1` [II (quinoxyfen), 5,7-dichloro-4-(4-fluorophenoxy)quinoline], the “Efficacy in % of the untreated control” value stood at 0% (1 ppm in the spray liquor (cell prints 161 = 16 and 1)); 16% (16 ppm in the spray liquor (cell prints 161 = 16 and 1)).
